From ChEMBL document CHEMBL6121044, “Discovery of Novel Spirocyclic MAT2A Inhibitors Demonstrating High In Vivo Efficacy in MTAP-Null Xenograft Models” (J Med Chem, 2025)

Key:
[1] = Cmax in male ICR mouse at 10 mg/kg, po measured upto 24 hrs by LC-MS/MS analysis; format: ADME, organism-based; settings: in vivo
Cytochrome P450 2C19 = Cytochrome P450 2C19 (Homo sapiens, UniProt P33261); assay: Inhibition of CYP2C19 (unknown origin); format: ADME
[2] = AUCinf in male Sprague-Dawley rat at 10 mg/kg, po measured upto 24 hrs upto 24 hrs by LC-MS/MS analysis; format: ADME, organism-based; settings: in vivo
[3] = Half life in male Sprague-Dawley rat at 10 mg/kg, po measured upto 24 hrs upto 24 hrs by LC-MS/MS analysis; format: ADME, organism-based; settings: in vivo
[4] = Oral bioavailability in beagle dog at 10 mg/kg measured upto 24 hrs upto 24 hrs by LC-MS/MS analysis; format: ADME, organism-based, Canis lupus familiaris; settings: in vivo
[5] = Half life in male ICR mouse at 10 mg/kg, po and 2 mg/kg, iv measured upto 24 hrs; format: ADME, organism-based; settings: in vivo
[6] = Protein binding in mouse brain assessed as unbound fraction; format: ADME, tissue-based
HCT-116 [7] = assay: Antiproliferative activity against MTAP-knock out human HCT-116 cells assessed as proliferation inhibition rate measured after 5 days by CTG assay; format: functional, cell-based; settings: HCT-116, 120 h
[8] = Clearance rate in male ICR mouse at 2 mg/kg, iv measured upto 24 hrs by LC-MS/MS analysis; format: ADME, organism-based; settings: in vivo
HCT-116 [9] = assay: Antiproliferative activity against MTAP-knock out human HCT-116 cells assessed as maximal inhibition rate at 10 uM measured after 5 days by CTG assay relative to control; format: functional; settings: time 5 day
Cytochrome P450 2C8 = target: T1, Cytochrome P450 2C8 (Homo sapiens, UniProt P10632); assay: Inhibition of CYP2C8 (unknown origin); format: ADME
T1 sequence (P10632 whole entry): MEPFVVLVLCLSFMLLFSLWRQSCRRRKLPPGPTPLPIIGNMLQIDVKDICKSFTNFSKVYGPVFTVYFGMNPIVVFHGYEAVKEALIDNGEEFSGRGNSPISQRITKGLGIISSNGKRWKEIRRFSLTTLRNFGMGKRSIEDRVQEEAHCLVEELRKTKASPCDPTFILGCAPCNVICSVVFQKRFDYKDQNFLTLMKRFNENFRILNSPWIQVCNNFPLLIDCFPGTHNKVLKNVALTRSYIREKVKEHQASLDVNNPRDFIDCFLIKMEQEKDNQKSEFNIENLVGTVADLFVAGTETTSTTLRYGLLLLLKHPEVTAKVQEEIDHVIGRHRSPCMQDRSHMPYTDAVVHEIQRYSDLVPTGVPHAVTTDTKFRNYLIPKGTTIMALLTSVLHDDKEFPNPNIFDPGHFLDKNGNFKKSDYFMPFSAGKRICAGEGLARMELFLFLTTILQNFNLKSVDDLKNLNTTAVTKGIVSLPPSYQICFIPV

Cytochrome P450 2D6 = Cytochrome P450 2D6 (Homo sapiens, UniProt P10635); assay: Inhibition of CYP2D6 (unknown origin); format: ADME
[10] = Genotoxicity in Salmonella typhimurium TA98; format: toxicity; settings: salmonella enterica subsp. enterica serovar typhimurium
[11] = Volume of distribution at steady state in male Sprague-Dawley rat at 2 mg/kg, iv measured upto 24 hrs upto 24 hrs by LC-MS/MS analysis; format: ADME, organism-based; settings: in vivo
[12] = Plasma protein binding in dog assessed as unbound fraction; format: ADME, cell-free, Canis lupus familiaris
[13] = AUCinf in beagle dog at 2 mg/kg, iv measured upto 24 hrs upto 24 hrs by LC-MS/MS analysis; format: ADME, organism-based, Canis lupus familiaris; settings: in vivo
Cytochrome P450 1A2 = target: T2, Cytochrome P450 1A2 (Homo sapiens, UniProt P05177); assay: Inhibition of CYP1A2 (unknown origin); format: ADME
T2 sequence (P05177 whole entry): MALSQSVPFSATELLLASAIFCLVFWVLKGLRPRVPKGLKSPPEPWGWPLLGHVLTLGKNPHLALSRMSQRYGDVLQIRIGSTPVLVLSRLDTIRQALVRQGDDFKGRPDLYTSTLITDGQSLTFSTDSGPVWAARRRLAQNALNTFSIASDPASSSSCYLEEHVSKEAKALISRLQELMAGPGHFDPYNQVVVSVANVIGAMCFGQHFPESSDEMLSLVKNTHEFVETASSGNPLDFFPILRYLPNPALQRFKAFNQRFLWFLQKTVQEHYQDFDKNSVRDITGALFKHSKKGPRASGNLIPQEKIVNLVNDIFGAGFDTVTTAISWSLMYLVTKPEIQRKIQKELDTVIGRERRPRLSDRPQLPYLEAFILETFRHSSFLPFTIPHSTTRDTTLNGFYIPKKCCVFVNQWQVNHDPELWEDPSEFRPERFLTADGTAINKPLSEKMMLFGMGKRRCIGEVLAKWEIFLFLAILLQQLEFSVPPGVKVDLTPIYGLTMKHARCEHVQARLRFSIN

Cytochrome P450 2C9 = Cytochrome P450 2C9 (Homo sapiens, UniProt P11712); assay: Inhibition of CYP2C9 (unknown origin); format: ADME
[14] = AUCinf in beagle dog at 10 mg/kg, po measured upto 24 hrs upto 24 hrs by LC-MS/MS analysis; format: ADME, organism-based, Canis lupus familiaris; settings: in vivo
[15] = Genotoxicity in Salmonella typhimurium TA100; format: toxicity; settings: salmonella enterica subsp. enterica serovar typhimurium
[16] = Plasma protein binding in mouse assessed as unbound fraction; format: ADME, cell-free
[17] = Microsomal metabolic stability in rat liver microsomes assessed as half life; format: ADME, Microsome
[18] = Half life in male Sprague-Dawley rat at 2 mg/kg, iv measured upto 24 hrs upto 24 hrs by LC-MS/MS analysis; format: ADME, organism-based; settings: in vivo
[19] = Selectivity index, ratio of IC50 for antiproliferative activity against wild type human HCT-116 cells to IC50 for antiproliferative activity against MTAP-knock out human HCT-116 cells
[20] = Clearance in male ICR mouse at 10 mg/kg, po and 2 mg/kg, iv measured upto 24 hrs; format: ADME, organism-based; settings: in vivo
[21] = Genotoxicity in Salmonella typhimurium TA102; format: toxicity; settings: salmonella enterica subsp. enterica serovar typhimurium
[22] = Microsomal metabolic stability in mouse liver microsomes assessed as clearance; format: ADME, Microsome; settings: read-out: CLH
[23] = Plasma protein binding in human assessed as unbound fraction; format: ADME, cell-free
[24] = target: T3, S-adenosylmethionine synthase isoform type-2 (Homo sapiens, UniProt P31153); assay: Inhibition of MAT2A in wild type human HCT-116 cells assessed as inhibition of S-adenosylmethionine; format: cell-based
HCT-116 [25] = assay: Antiproliferative activity against wild type human HCT-116 cells measured after 5 days by CTG assay; format: functional, cell-based; settings: HCT-116, 120 h
[26] = Lipophilicity, log P of the compound; format: physicochemical; settings: octanol/water
[27] = Apparent permeability across apical to basolateral in human Caco-2 cells; format: ADME, cell-based; settings: read-out: permeability
[28] = Hepatic metabolic stability in rat hepatocyte assessed as half life; format: ADME, cell-based; settings: hepatocytes
[29] = Lipophilicity, log D of compound at pH 7.4 byHPLC method; format: physicochemical; settings: buffer
[30] = target: T3, S-adenosylmethionine synthase isoform type-2; assay: Inhibition of MAT2A in wild type human HCT-116 cells assessed as inhibition of PRMT5-mediated symmetric […]-arginine (SDMA) level; format: cell-based
[31] = Hepatic metabolic stability in dog hepatocyte assessed as half life; format: ADME, cell-based, Canis lupus familiaris; settings: hepatocytes
[32] = Hepatic metabolic stability in Cynomolgus monkey hepatocyte assessed as half life; format: ADME, cell-based, Macaca fascicularis; settings: hepatocytes

T3 sequence (P31153 whole entry, canonical isoform): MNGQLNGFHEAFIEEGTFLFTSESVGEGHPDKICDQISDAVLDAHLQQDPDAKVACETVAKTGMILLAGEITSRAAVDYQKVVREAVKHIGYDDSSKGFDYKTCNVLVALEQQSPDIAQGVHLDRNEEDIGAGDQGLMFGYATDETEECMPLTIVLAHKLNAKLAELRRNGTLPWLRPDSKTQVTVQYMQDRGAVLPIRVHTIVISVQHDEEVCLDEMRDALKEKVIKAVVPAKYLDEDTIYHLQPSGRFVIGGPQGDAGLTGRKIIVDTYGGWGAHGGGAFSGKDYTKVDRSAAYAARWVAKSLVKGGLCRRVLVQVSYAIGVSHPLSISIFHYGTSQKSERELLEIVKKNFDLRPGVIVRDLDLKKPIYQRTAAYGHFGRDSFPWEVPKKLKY
Sequence of Cytochrome P450 2C9 (P11712 whole entry): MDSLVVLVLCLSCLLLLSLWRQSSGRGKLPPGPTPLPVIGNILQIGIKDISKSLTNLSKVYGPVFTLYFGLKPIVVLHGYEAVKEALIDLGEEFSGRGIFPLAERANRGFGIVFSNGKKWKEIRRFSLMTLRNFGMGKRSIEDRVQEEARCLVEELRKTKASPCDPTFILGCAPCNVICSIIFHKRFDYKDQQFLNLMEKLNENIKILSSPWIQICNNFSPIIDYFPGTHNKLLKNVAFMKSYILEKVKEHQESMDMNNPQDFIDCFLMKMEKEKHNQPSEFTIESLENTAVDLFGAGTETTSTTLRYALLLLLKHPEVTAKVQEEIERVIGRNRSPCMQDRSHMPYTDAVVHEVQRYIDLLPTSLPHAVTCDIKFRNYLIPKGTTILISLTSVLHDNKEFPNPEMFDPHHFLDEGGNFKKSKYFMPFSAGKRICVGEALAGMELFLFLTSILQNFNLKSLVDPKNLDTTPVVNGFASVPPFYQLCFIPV
Sequence of Cytochrome P450 2D6 (P10635 whole entry): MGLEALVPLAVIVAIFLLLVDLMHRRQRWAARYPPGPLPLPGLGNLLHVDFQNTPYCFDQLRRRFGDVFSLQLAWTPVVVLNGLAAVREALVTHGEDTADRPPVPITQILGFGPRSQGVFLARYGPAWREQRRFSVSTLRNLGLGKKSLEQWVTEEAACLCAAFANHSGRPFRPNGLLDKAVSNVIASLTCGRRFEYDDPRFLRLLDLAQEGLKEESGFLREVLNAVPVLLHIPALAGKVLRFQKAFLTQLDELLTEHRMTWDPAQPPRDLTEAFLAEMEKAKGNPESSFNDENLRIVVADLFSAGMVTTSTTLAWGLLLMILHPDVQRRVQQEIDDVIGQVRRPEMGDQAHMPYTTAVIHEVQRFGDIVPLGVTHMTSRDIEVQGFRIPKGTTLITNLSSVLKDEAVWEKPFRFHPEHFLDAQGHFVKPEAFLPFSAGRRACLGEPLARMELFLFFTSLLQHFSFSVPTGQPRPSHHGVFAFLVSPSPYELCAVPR
Sequence of Cytochrome P450 2C19 (P33261 whole entry): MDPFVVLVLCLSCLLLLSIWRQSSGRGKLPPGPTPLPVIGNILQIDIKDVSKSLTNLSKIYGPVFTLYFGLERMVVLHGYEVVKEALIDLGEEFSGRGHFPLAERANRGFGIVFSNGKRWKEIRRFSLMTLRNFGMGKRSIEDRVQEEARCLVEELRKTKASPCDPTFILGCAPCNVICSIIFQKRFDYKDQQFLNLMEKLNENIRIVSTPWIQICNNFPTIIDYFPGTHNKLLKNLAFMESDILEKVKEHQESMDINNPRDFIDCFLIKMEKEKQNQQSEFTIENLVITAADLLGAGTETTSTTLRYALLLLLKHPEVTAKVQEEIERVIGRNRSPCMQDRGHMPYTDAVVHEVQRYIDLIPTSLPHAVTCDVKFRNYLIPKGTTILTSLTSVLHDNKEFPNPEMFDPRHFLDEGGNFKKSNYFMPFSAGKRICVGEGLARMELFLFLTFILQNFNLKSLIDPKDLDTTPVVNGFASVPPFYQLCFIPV

[2H]C([2H])([2H])NC1=NC(=O)[C@]2(CCc3ncccc32)c2cc(C(C)(F)F)ccc21
Cmax [1]: 5820 ng/mL
IC50 (Cytochrome P450 2C19): > 10 µM
AUC(0-inf) [2]: 14500 ng·h/mL
half-life [3]: 2.35 h
F ([4]; po, 10 mg/kg, 24 h): 165%
half-life [5]: 2.24 h
fraction unbound [6]: 0.148
IC50 (HCT-116 [7]): 0.047 µM
clearance [8]: 9.12 mL/min/kg
Imax (HCT-116 [9]): 100%
IC50 (Cytochrome P450 2C8): > 10 µM
IC50 (Cytochrome P450 2D6): > 10 µM
Activity [10]: Non-toxic
Vdss [11]: 1.95 L/kg
fraction unbound [12]: 0.456
AUC(0-inf) [13]: 1860 ng·h/mL
IC50 (Cytochrome P450 1A2): > 10 µM
IC50 (Cytochrome P450 2C9): > 10 µM
AUC(0-inf) [14]: 12300 ng·h/mL
Activity [15]: Non-toxic
fraction unbound [16]: 0.345
half-life [17]: > 3.1 h
t1/2 [18]: 2.03 h
Selectivity Index [19]: >181
clearance [20]: 9.12 mL/min/kg
Activity [21]: Non-toxic
CLint scaled [22]: 37 mL/min/kg
fraction unbound [23]: 0.676
IC50 [24]: 0.002 µM
IC50 (HCT-116 [25]): > 10 µM
logP [26]: 1.65
Papp A→B [27]: 5.12 ×10⁻⁶ cm/s
half-life [28]: > 3.61 h
logD [29]: 1.59
IC50 [30]: > 3 µM
half-life [31]: > 3.61 h
half-life [32]: > 3.61 h

[2H]C([2H])([2H])NC1=NC(=O)[C@]2(CCc3ncccc32)c2cc(C(F)(F)F)ccc21
Cmax [1]: 5420 ng/mL
IC50 (Cytochrome P450 2C19): > 10 µM
AUC(0-inf) [2]: 24300 ng·h/mL
half-life [3]: 2.4 h
bioavailability ([4]; beagle): 130%
half-life [5]: 2.17 h
fraction unbound [6]: 0.113
IC50 (HCT-116 [7]): 0.058 µM
clearance [8]: 7.98 mL/min/kg
Imax (HCT-116 [9]): 89.34%
IC50 (Cytochrome P450 2C8): > 10 µM
IC50 (Cytochrome P450 2D6): > 10 µM
Activity [10]: Non-toxic
Vdss [11]: 1.84 L/kg
fraction unbound [12]: 0.497
AUC(0-inf) [13]: 2610 ng·h/mL
IC50 (Cytochrome P450 1A2): > 10 µM
IC50 (Cytochrome P450 2C9): > 10 µM
AUC(0-inf) [14]: 13600 ng·h/mL
Activity [15]: Non-toxic
fraction unbound [16]: 0.276
half-life [17]: > 3.1 h
t1/2 [18]: 2.35 h
Selectivity Index [19]: 20
clearance [20]: 7.98 mL/min/kg
Activity [21]: Non-toxic
CLint scaled [22]: < 29.3 mL/min/kg
fraction unbound [23]: 0.758
IC50 [24]: 0.003 µM
IC50 (HCT-116 [25]): 0.68 µM
logP [26]: 1.85
Papp A→B [27]: 13.6 ×10⁻⁶ cm/s
half-life [28]: > 3.61 h
logD [29]: 1.81
IC50 [30]: > 3 µM
half-life [31]: > 3.61 h
half-life [32]: > 3.61 h
